From patent publication US20260226068A1, “IMIDAZOTRIAZINE IL-17A MODULATORS AND USES THEREOF” (DICE ALPHA, INC., priority 2023, published 2026)

How the values were obtained:
[1] = target: T1, IL-17A/A (Homo sapiens, UniProt Q16552); assay: IL-17A/A HEK-Blue cell assay (SEAP reporter); format: cell-based; details: HEK-Blue IL-17A reporter cells, IL17A/A 5 ng/mL, 20 hours, SEAP read at A630; read-out: HEK-Blue IL17AA (IC50 for IL-17A/A inhibition)
T1 construct: purchased Genscript Z03228
T1 sequence (Q16552 24-155): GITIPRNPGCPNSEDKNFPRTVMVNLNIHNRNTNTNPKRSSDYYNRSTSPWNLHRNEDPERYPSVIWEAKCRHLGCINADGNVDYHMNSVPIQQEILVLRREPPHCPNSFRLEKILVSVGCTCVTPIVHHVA

[2] = target: T2, IL-17A/F (Homo sapiens, UniProt Q16552+Q96PD4); assay: IL-17A/F HEK-Blue cell assay (SEAP reporter); format: cell-based; details: HEK-Blue IL-17A reporter cells, IL17A/F 5 ng/mL, 20 hours, SEAP read at A630; read-out: HEK-Blue IL17AF (IC50 for IL-17A/F inhibition)
T2 construct: purchased R&D Systems
T2 sequence (Q16552 24-155): T1 sequence (Q16552 24-155)
T2 sequence (Q96PD4 31-163): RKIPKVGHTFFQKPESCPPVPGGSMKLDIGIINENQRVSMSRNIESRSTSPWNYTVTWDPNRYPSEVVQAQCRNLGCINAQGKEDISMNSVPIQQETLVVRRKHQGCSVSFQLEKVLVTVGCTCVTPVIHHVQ

Structure (SMILES)	IC50 [1]	IC50 [2]
CC(C)(C)n1nccc1C(=O)N[C@H](c1cn2nc(C[C@H]3C[C@@H](C(F)(F)F)CNC3=O)c(C3CCOCC3)nc2n1)C1CCC(F)(F)CC1 [Compound 414, 1-(tert-butyl)-N—((S)-(4,4-difluorocyclohexyl)(2-(((3R,5R)-2-oxo-5-(trifluoromethyl)piperidin-3-yl)methyl)-3-(tetrahydro-2H-pyran-4-yl)imidazo[1,2-b][1,2,4]triazin-6-yl)methyl)-1H-pyrazole-5-carboxamide]	< 100 nM	> 1000 nM
CCn1nccc1C(=O)N[C@H](c1cn2nc(C[C@H]3C[C@@H](C(F)(F)F)CNC3=O)c(C(C)(C)F)nc2n1)C1CCC(F)(F)CC1 [Compound 216, N-((1S)-(4,4-difluorocyclohexyl)(3-(2-fluoropropan-2-yl)-2-(((3R,5R)-2-oxo-5-(trifluoromethyl)piperidin-3-yl)methyl)imidazo[1,2-b][1,2,4]triazin-6-yl)methyl)-1-ethyl-1H-pyrazole-5-carboxamide]	< 100 nM	100 to 1000 nM
CCn1nccc1C(=O)N[C@H](c1cn2nc(C[C@H]3C[C@@H](C(F)(F)F)CNC3=O)c(N3CCOCC3)nc2n1)C1CCC(F)(F)CC1 [Compound 46]	< 100 nM	100 to 1000 nM
CC(C)c1nonc1C(=O)N[C@H](c1cn2nc(CC3C[C@@H](C(F)(F)F)CNC3=O)cnc2n1)C1CCC(F)(F)CC1 (stereo partly shown) [Compound 12]	< 100 nM	> 1000 nM
CCn1ncnc1C(=O)N[C@H](c1cn2nc(C[C@H]3C[C@@H](C(F)(F)F)CNC3=O)c(C3CCOCC3)nc2n1)C1CCCCCC1 [Compound 410]	< 100 nM	100 to 1000 nM
CC(C)n1nccc1C(=O)N[C@H](c1cn2nc(C[C@H]3C[C@@H](C(F)(F)F)CNC3=O)c(C3CCOCC3)nc2n1)C1CCC(F)(F)CC1 [Compound 147, N-((1S)-(4,4-difluorocyclohexyl)(2-(((3R,5R)-2-oxo-5-(trifluoromethyl)piperidin-3-yl)methyl)-3-(tetrahydro-2H-pyran-4-yl)imidazo[1,2-b][1,2,4]triazin-6-yl)methyl)-1-isopropyl-1H-pyrazole-5-carboxamide]	< 100 nM	100 to 1000 nM
CC(C)n1nccc1C(=O)N[C@H](c1cn2nc(C[C@H]3C[C@@H](C(F)(F)F)CNC3=O)c(C3CCOCC3)nc2n1)[C@H]1CCCC(F)(F)C1 [Compound 211, N-((1S)—((S)-3,3-difluorocyclohexyl)(2-(((3R,5R)-2-oxo-5-(trifluoromethyl)piperidin-3-yl)methyl)-3-(tetrahydro-2H-pyran-4-yl)imidazo[1,2-b][1,2,4]triazin-6-yl)methyl)-1-isopropyl-1H-pyrazole-5-carboxamide]	< 100 nM	< 100 nM
CCn1nccc1C(=O)N[C@H](c1cn2nc(CC3C[C@@H](C(F)(F)F)CNC3=O)c(N3CCOCC3)nc2n1)C1CCC(F)(F)CC1 (single isomer, unassigned) [Compound 18]	< 100 nM	> 1000 nM
CCn1nccc1C(=O)N[C@H](c1cn2nc(CC3C[C@@H](C(F)(F)F)CNC3=O)c(N3C[C@H]4CC[C@@H](C3)O4)nc2n1)C1CCC(F)(F)CC1 (single isomer, unassigned) [Compound 84]	< 100 nM	100 to 1000 nM
CCn1nccc1C(=O)N[C@H](c1cn2nc(CC3C[C@@H](C(F)(F)F)CNC3=O)c(N3CC4CC(C3)O4)nc2n1)[C@H]1CC[C@H](C)CC1 (single isomer, unassigned) [Compound 103]	< 100 nM	100 to 1000 nM
CCn1nccc1C(=O)N[C@H](c1cn2nc(C[C@H]3C[C@@H](C(F)(F)F)CNC3=O)c(N3CCC4(CCOCC4)C3)nc2n1)C1CCC(F)(F)CC1 [Compound 162, N—((S)-(4,4-difluorocyclohexyl)(2-(((3R,5R)-2-oxo-5-(trifluoromethyl)piperidin-3-yl)methyl)-3-(8-oxa-2-azaspiro[4.5]decan-2-yl)imidazo[1,2-b][1,2,4]triazin-6-yl)methyl)-1-ethyl-1H-pyrazole-5-carboxamide]	< 100 nM	100 to 1000 nM
Cc1nonc1C(=O)N[C@H](c1cn2nc(C[C@H]3C[C@@H](C(F)(F)F)CNC3=O)c([C@H]3CCOC3)nc2n1)C1CCC(F)(F)CC1 (single isomer, unassigned) [Compound 274]	< 100 nM	> 1000 nM
C[C@@H]1CN(c2nc3nc([C@@H](NC(=O)c4ccnn4C)[C@@H]4CCCC(F)(F)C4)cn3nc2C[C@H]2C[C@H](C(F)(F)F)CNC2=O)CCO1 [Compound 309, N—((S)—((R)-3,3-difluorocyclohexyl)(3-((R)-2-methylmorpholino)-2-(((3R,5S)-2-oxo-5-(trifluoromethyl)piperidin-3-yl)methyl)imidazo[1,2-b][1,2,4]triazin-6-yl)methyl)-1-methyl-1H-pyrazole-5-carboxamide]	< 100 nM	100 to 1000 nM

The next lines start with the values.

IC50 [1]	IC50 [2]	Structure (SMILES)
< 100 nM	> 1000 nM	O=C(N[C@H](c1cn2nc(C[C@H]3C[C@@H](C(F)(F)F)CNC3=O)c(C3CCOCC3)nc2n1)C1CCC(F)(F)CC1)c1ccnn1CCN1CCOCC1 [Compound 378, N—((S)-(4,4-difluorocyclohexyl)(2-(((3R,5R)-2-oxo-5-(trifluoromethyl)piperidin-3-yl)methyl)-3-(tetrahydro-2H-pyran-4-yl)imidazo[1,2-b][1,2,4]triazin-6-yl)methyl)-1-(2-morpholinoethyl)-1H-pyrazole-5-carboxamide]
< 100 nM	100 to 1000 nM	CCn1nccc1C(=O)N[C@H](c1cn2nc(C[C@H]3C[C@@H](C(F)(F)F)CNC3=O)c(C34COC(C3)C4)nc2n1)C1CCC(F)(F)CC1 [Compound 255, N—((S)-(3-(2-oxabicyclo[2.1.1]hexan-4-yl)-2-(((3R,5R)-2-oxo-5-(trifluoromethyl)piperidin-3-yl)methyl)imidazo[1,2-b][1,2,4]triazin-6-yl)(4,4-difluorocyclohexyl)methyl)-1-ethyl-1H-pyrazole-5-carboxamide]
< 100 nM	> 1000 nM	CCn1nccc1C(=O)N[C@H](c1cn2nc(CC3C[C@@H](C(F)(F)F)CNC3=O)c(N3CC4CC(C3)O4)nc2n1)[C@@H]1CCCC(F)(F)C1 (single isomer, unassigned) [Compound 97]
< 100 nM	> 1000 nM	Cc1nonc1C(=O)N[C@H](c1cn2nc(C[C@@H]3C[C@H](C)CNC3=O)c(C3CCOCC3)nc2n1)C1CCC(F)(F)CC1 [Compound 399]
< 100 nM	> 1000 nM	O=C(N[C@H](c1cn2nc(CC3C[C@@H](C(F)(F)F)CNC3=O)c(N3CCOCC3)nc2n1)C1CCC(F)(F)CC1)c1nonc1C1CC1 (stereo partly shown) [Compound 57]
< 100 nM	100 to 1000 nM	CCn1nccc1C(=O)N[C@H](c1cn2nc(C[C@H]3C[C@@H](C(F)(F)F)CNC3=O)c(C3Cc4cncnc4C3)nc2n1)C1CCC(F)(F)CC1 (single isomer, unassigned) [Compound 400]
< 100 nM	> 1000 nM	CCn1nccc1C(=O)N[C@H](c1cn2nc(C[C@H]3C[C@@H](C(F)(F)F)CNC3=O)c(CN3CCOC(C)(C)C3)nc2n1)C1CCC(F)(F)CC1 [Compound 351, N—((S)-(4,4-difluorocyclohexyl)(3-((2,2-dimethylmorpholino)methyl)-2-(((3R,5R)-2-oxo-5-(trifluoromethyl)piperidin-3-yl)methyl)imidazo[1,2-b][1,2,4]triazin-6-yl)methyl)-1-ethyl-1H-pyrazole-5-carboxamide]
< 100 nM	> 1000 nM	CCn1nccc1C(=O)N[C@H](c1cn2nc(C[C@H]3C(=O)NC4CC3C4)c(C3CCOCC3)nc2n1)C1CCC(F)(F)CC1 [Compound 426]
< 100 nM	100 to 1000 nM	CCn1nccc1C(=O)N[C@H](c1cn2nc(C[C@H]3C[C@@H](C(F)(F)F)CNC3=O)c(N3CCO[C@@H](C)C3)nc2n1)[C@H]1CCCC(F)(F)C1 [Compound 123, N—((S)—((S)-3,3-difluorocyclohexyl)(3-((S)-2-methylmorpholino)-2-(((3R,5R)-2-oxo-5-(trifluoromethyl)piperidin-3-yl)methyl)imidazo[1,2-b][1,2,4]triazin-6-yl)methyl)-1-ethyl-1H-pyrazole-5-carboxamide]
< 100 nM	100 to 1000 nM	CCn1nccc1C(=O)N[C@H](c1cn2nc(CC3C[C@@H](C(F)(F)F)CNC3=O)c(N3CCOCC3)nc2n1)[C@H]1CC[C@H](C)CC1 (stereo partly shown) [Compound 58]
< 100 nM	100 to 1000 nM	CCn1nccc1C(=O)N[C@H](c1cn2nc(C[C@H]3C[C@@H](C(F)(F)F)CNC3=O)c(N3CCN(C4COC4)CC3)nc2n1)C1CCC(F)(F)CC1 [Compound 433, N—((S)-(4,4-difluorocyclohexyl)(3-(4-(oxetan-3-yl)piperazin-1-yl)-2-(((3R,5R)-2-oxo-5-(trifluoromethyl)piperidin-3-yl)methyl)imidazo[1,2-b][1,2,4]triazin-6-yl)methyl)-1-ethyl-1H-pyrazole-5-carboxamide]
< 100 nM	< 100 nM	CCn1nccc1C(=O)N[C@H](c1cn2nc(C[C@H]3C[C@@H](C(F)(F)F)CNC3=O)c(N3CCO[C@H](C)C3)nc2n1)[C@H]1CCCC(F)(F)C1 [Compound 121, N—((S)—((S)-3,3-difluorocyclohexyl)(3-((R)-2-methylmorpholino)-2-(((3R,5R)-2-oxo-5-(trifluoromethyl)piperidin-3-yl)methyl)imidazo[1,2-b][1,2,4]triazin-6-yl)methyl)-1-ethyl-1H-pyrazole-5-carboxamide]
< 100 nM	> 1000 nM	CC(C)c1nonc1C(=O)N[C@H](c1cn2nc(C[C@H]3C[C@@H](C(F)(F)F)CNC3=O)cnc2n1)C1CCC(F)(F)CC1 [Compound 37]
